Columns and labels:
293T cells [1] = experiment: Oxygen consumption rate, parental 293T cells; format: cell-based, human; details: 40 μM heme for 1 hour
MFSD7C and SERCA2b = target: T1, MFSD7C and SERCA2b (Mus musculus, UniProt Q91X85); experiment: Co-IP of MFSD7C and SERCA2b in transfected 293T cells; format: cell-based, murine; details: 293T cells in the presence of MG132, heme for one hour
T1 construct: expressed in transfected cells; called 293T
Description: FIGS. 5A-5F show MFSD7C and heme regulate thermogenesis through SERCA2b in THP-1 cells. […] 30 hours later, MG132 was added into half of the cells and the other half was not treated. Another 35 hours later, some cells were treated with 40 μM heme for 1 hour before lysis. Cell lysates were immunoprecipitated with anti-FLAG antibody, and eluted, followed by anti-HA immunoprecipitation and elution. Total cell lysate and elute were subjected to Western blotting and probed with anti-SERCA2b or anti-MFSD7C antibodies. Shown are representative data from one of three experiments. […] 24 hrs later, cells were either not treated or treated with 10 μM MG132 for either 6 or 12 hours. The cells were lysed and subjected to FLAG pull-down and blotted with anti-MFSD7C, anti-SERCA2b and anti-ubiquitin antibodies. Shown are representative data from one of three experiments. […] Parental THP-1 cells were either not treated or treated with heme before lysis. Shown are representative data from one of four experiments. […] Shown are representative data from one of two experiments. […] Cells were washed and treated with 40 μM heme for one hour before flow cytometry. Representative FPT histograms from one of three experiments are shown. […] Shown are representative FPT histograms from one of three experiments. […]

NTD of human MFSD7C = target: T2, NTD of human MFSD7C (Homo sapiens, UniProt Q9UPI3); experiment: Isothermal titration calorimetry of NTD binding to heme
T2 construct: Plasmid harboring GST-His-tag-SUMO-NTD (amino acids 1-84); GST-His-tag-SUMO (N, cleaved yes); made in house; host or cells: Escherichia coli Lemo21(DE3)
T2 sequence (Q9UPI3 1-84): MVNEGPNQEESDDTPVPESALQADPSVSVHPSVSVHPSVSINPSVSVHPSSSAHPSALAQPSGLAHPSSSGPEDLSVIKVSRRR

293T cells [2] = experiment: Thermogenesis by FPT, parental 293T cells; format: cell-based, human; details: heme for 1 hour
Description: Shown are representative graphs of OCR output of the indicated cells with or without hematin treatment and their responses to oligomycin, FCCP, and rotenone plus antimycin A (FIG. 12B), basal OCR (FIG. 12C), maximal OCR (FIG. 12D), and ECAR (FIG. 12E) from two separate experiments with n=10 biologically independent samples. Data are presented as mean value±standard deviation. Each dot represents one technical replicate. […] Parental and knockout cells were incubated with no probe or FPT for 6 hours, and then washed twice. A portion of FPT-treated cells was treated with heme for 1 hour. FPT fluorescence intensity was quantified by flow cytometry. Shown are representative plots from two separate experiments. P-values were calculated using two-way ANOVA (***p<0.001).
In the second approach, we used fluorescent polymeric thermometer (FPT), which we synthesized in-house (see above). Parental and knockout THP-1 cells were mixed together, washed and incubated with FPT in 5% w/v glucose solution for 6 hrs. The cells were washed with PBS twice and reseeded in dishes with glass bottom that was coated with poly-lysine. The cells were imaged under Confocal Laser-Scanning Microscopy at 37° C. […] Then the fluorescence intensities were determined by a flow cytometer.

Serca2b^−/− THP-1 cells = experiment: Thermogenesis by FPT in Serca2b knockout THP-1 cells; format: cell-based, human; details: 40 μM heme 1 hour, FPT flow cytometry
Description: FIGS. 5A-5F show MFSD7C and heme regulate thermogenesis through SERCA2b in THP-1 cells. […] 30 hours later, MG132 was added into half of the cells and the other half was not treated. Another 35 hours later, some cells were treated with 40 μM heme for 1 hour before lysis. Cell lysates were immunoprecipitated with anti-FLAG antibody, and eluted, followed by anti-HA immunoprecipitation and elution. Total cell lysate and elute were subjected to Western blotting and probed with anti-SERCA2b or anti-MFSD7C antibodies. Shown are representative data from one of three experiments. […] 24 hrs later, cells were either not treated or treated with 10 μM MG132 for either 6 or 12 hours. The cells were lysed and subjected to FLAG pull-down and blotted with anti-MFSD7C, anti-SERCA2b and anti-ubiquitin antibodies. Shown are representative data from one of three experiments. […] Parental THP-1 cells were either not treated or treated with heme before lysis. Shown are representative data from one of four experiments. […] Shown are representative data from one of two experiments. […] Cells were washed and treated with 40 μM heme for one hour before flow cytometry. Representative FPT histograms from one of three experiments are shown. […]
In the second approach, we used fluorescent polymeric thermometer (FPT), which we synthesized in-house (see above). […] Then the fluorescence intensities were determined by a flow cytometer.

T1 sequence (Q91X85 whole entry): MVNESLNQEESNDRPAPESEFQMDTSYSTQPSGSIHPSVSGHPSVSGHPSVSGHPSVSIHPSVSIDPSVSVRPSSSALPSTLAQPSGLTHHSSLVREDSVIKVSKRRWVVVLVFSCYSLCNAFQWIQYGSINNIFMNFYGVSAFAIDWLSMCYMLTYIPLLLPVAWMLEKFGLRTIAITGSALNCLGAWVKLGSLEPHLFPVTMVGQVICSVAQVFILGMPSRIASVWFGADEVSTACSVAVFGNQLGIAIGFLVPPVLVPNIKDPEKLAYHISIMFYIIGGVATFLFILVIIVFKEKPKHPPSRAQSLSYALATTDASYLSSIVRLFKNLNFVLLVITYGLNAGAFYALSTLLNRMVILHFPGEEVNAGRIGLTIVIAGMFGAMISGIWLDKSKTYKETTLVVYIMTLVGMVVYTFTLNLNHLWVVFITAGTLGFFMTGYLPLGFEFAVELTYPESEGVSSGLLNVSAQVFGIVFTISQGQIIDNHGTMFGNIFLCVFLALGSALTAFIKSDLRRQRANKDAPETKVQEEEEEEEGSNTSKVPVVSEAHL

C=CC1=C(C)c2cc3[n-]c(cc4[n-]c(cc5nc(cc1n2)C(C)=C5C=C)c(C)c4CCC(=O)O)c(CCC(=O)O)c3C.[Fe+2] [heme]
OCR (293T cells [1]): significantly stimulated
co-IP of SERCA2b with MFSD7C (MFSD7C and SERCA2b): abolished
heme molecules bound by the NTD (NTD of human MFSD7C; ITC): three
heme molecules the NTD is capable of binding (NTD of human MFSD7C; overall conclusion of Example 2): 2-3
FTP intensity (293T cells [2]): significantly stimulated
thermogenesis following heme treatment (Serca2b^−/− THP-1 cells): significantly diminished

— patent US20230313199A1, “TARGET FOR MODULATING BODY MASS” (Massachusetts Institute of Technology, priority 2020, published 2023)
